In US6509464B1, “FKBP inhibitors” (Pfizer Inc, priority 1999, dated 2003):

Tests used:
Format in all cases: biochemical
[1] = biological target: T1, human recombinant FKBP-12 (Homo sapiens, UniProt P62942); test: coupled PPIase (rotamase) assay, IC50 determination vs. FKBP-12; details: tested vs. FKBP-12 and/or FKBP-52; succinyl-AFPF-pNA substrate, chymotrypsin-coupled, 10° C., pH 8.0
Description: (§1) The affinity of the compounds of the formula (I) for FKBP-12 can be determined in vitro in a coupled calorimetric PPlase assay using similar procedures to published methods (e.g. see Kofron, J. L., et al., Biochemistry, 1991, 30, 6127-6134, Zarnt, T., et al., Biochem. J. 1995, 305, 159-164, Holt, D. A., et al., J. Am. Chem. Soc., 1993, 115, 9925-9938). In these methods, the cis-trans isomerisation of a hydrophobic amino acid-proline bond in a tetrapeptide substrate (e.g. the phenylalanine-proline bond in N-succinyl-ala-phe-pro-phe-p-nitroanilide [succinyl-AFPF-pNA]) can be determined by monitoring cleavage of pNA from the transPro-containing peptide by an excess of chymotrypsin.
The IC50 (the concentration of the compound of the formula (I) producing 50% inhibition) values were determined using the following assay methodology. Assay buffer (2.175 ml) (50 mM 4-(2-hydroxyethyl)-1-piperazineethanesulphonic acid (HEPES), 100 mM NaCl, 1 mM dithiothreitol (DTT), pH 8.0) is equilibrated to 10° C. in a cuvette. 12.5 μl of a solution of the present compound in DMSO, 250 μl of a 60 mg/ml solution of α-chymotrypsin in 1 mM aqueous hydrochloric acid and then 50 μl of a solution of human recombinant FKBP-12 (4.5 μM) in assay buffer are added and mixed. The reaction is initiated by addition of 12.5 μl of a solution of 20 mM succinyl-AFPF-pNA in DMSO. The absorbance at 390 nm is monitored for one minute collecting data every 0.25 second. Data are fitted with a first order rate equation with offset and the rate constant obtained corrected for the rate of uncatalysed isomerisation of the substrate. The rate constant determined at different inhibitor concentrations (10 nM to 100 μM) is expressed as % inhibition of the control rate constant. The IC50 is estimated using a nonlinear least squares curve fitting routine of the sigmoidal dose response data.

[2] = biological target: T1, human recombinant FKBP-12; test: coupled PPIase (rotamase) assay, Ki,app determination vs. FKBP-12; details: tested vs. FKBP-12 and/or FKBP-52; FKBP-12 method; succinyl-AFPF-pNA, 10° C., pH 8.0
Description: as §1
(§2) Assay buffer (2.175 ml) (50 mM HEPES, 100 mM NaCl, 1 mM DTT, pH 8.0) is equilibrated to 10° C. in a cuvette. 12.5 μl of a solution of the present compound in DMSO, 250 μl of a 60 mg/ml solution of α-chymotrypsin in 1 mM aqueous hydrochloric acid and then 50 μL of a solution of human recombinant FKBP-12 (1.5 μM) in assay buffer are added and mixed. The reaction is initiated by adding 12.5 μl of a solution of anhydrous succinyl-AFPF-pNA (100 μM final concentration) in a 400 mM solution of LiCl in trifluoroethanol. The absorbance at 390 nm is monitored for 3 minutes collecting data every 0.5 second. Data are fitted with a first order rate equation with offset and the initial velocity (v) is calculated from the concentration of cis (re leu-pro bond)-succinyl-AFPF-pNA at to and the first order rate constant at different inhibitor concentrations (I). Data in the form vinh/vcontrol v. [I] are fitted with an equation for reversible tight binding inhibition to generate values for Kiapp (see Morrison, J. F., et al, Comments Mol. Cell Biophys., 1985, 2, 347-368). This analysis is used when the Ki,app approaches the concentration of FKBP-12 in the assay (30 nM).

[3] = biological target: T2, human recombinant FKBP-52 (Homo sapiens, UniProt Q02790); test: coupled PPIase (rotamase) assay, Ki,app determination vs. FKBP-52; details: tested vs. FKBP-12 and/or FKBP-52; FKBP-52 method; succinyl-AFPF-pNA, 10° C., pH 8.0
T2 sequence (Q02790 1-459): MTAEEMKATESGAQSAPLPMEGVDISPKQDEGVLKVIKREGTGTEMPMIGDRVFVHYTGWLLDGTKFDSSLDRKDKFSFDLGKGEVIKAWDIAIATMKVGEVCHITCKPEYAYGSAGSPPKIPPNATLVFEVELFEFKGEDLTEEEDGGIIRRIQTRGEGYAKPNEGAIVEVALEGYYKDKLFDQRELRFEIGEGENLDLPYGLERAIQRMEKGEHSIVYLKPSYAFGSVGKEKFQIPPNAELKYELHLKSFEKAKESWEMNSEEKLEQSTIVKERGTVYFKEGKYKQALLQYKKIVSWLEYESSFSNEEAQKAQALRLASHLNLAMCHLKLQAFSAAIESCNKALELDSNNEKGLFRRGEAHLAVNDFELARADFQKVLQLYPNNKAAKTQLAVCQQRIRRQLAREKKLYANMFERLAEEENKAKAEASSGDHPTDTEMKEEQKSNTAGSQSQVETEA
Protocol: as §2
The same methodology is used to measure Ki,app for FKBP-52, with the following modifications: 40 μl human recombinant FKBP-52 (5.2 μM) is substituted for FKBP-12 and 2.185 ml assay buffer are used in the assay.

T1 sequence (P62942 whole entry): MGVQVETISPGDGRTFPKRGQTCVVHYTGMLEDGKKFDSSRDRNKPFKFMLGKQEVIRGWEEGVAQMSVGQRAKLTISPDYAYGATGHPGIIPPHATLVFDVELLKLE

CC(C)NC(=O)N1C[C@@H](C)N(CCNC(=O)[C@@H]2CCCCN2c2nc3ccccc3o2)[C@@H](C)C1 [Example 11, (cis)-4-[2-([(2S)-1-(1,3-Benzoxazol-2-yl)-2-piperidinyl]carbonylamino)ethyl]-N^1-isopropyl-3,5-dimethyl-1-piperazinecarboxamide]
< 1000 nM: IC50 [1] | Ki [2] | Ki [3]

COc1ccc2[nH]c(N3CCCC[C@H]3C(=O)NCCN3[C@H](C)CCC[C@@H]3C)nc2c1 [Example 18]
< 1000 nM: IC50 [1] | Ki [2] | Ki [3]

Cc1cc2nc(N3CCCC[C@H]3C(=O)NCCN3[C@H](C)CCC[C@@H]3C)oc2cc1C [Example 31, (2S)-N^2-2-[(cis)-2,6-Dimethyl-1-piperidinyl]ethyl-1-[5,6-dimethyl-1,3-benzoxazol-2-yl]-2-piperidinecarboxamide]
< 1000 nM: IC50 [1] | Ki [2] | Ki [3]

CC1COCC(C)N1CCNC(=O)[C@@H]1CCCCN1c1nc2ccccc2o1 (stereo partly drawn) [Example 12, (2S)-1-(1,3-Benzoxazol-2-yl)-N^2-[2-(3,5-dimethylmorpholino)ethyl]-2-piperidinecarboxamide]
< 1000 nM: IC50 [1] | Ki [2] | Ki [3]

Cc1cccc2[nH]c(N3CCCC[C@H]3C(=O)NCCN3[C@H](C)CCC[C@@H]3C)nc12 [Example 27]
< 1000 nM: IC50 [1] | Ki [2] | Ki [3]

C[C@@H]1CCC[C@H](C)N1CCNC(=O)[C@@H]1CCCCN1c1nc2ccc(F)cc2[nH]1 [Example 19]
< 1000 nM: IC50 [1] | Ki [2] | Ki [3]

C[C@@H]1CCC[C@H](C)N1CCNC(=O)[C@@H]1CCCCN1c1nc2ccccc2o1 [Example 3, (2S)-1-(1,3-Benzoxazol-2-yl)-N^2-2-[(cis)-2,6-dimethyl-1-piperidinyl]ethyl-2-piperidinecarboxamide]
< 1000 nM: IC50 [1] | Ki [2] | Ki [3]

C[C@@H]1CCC[C@H](C)N1CCNC(=O)[C@@H]1CCCCN1c1nc2ccccc2[nH]1 [Example 17]
< 1000 nM: IC50 [1] | Ki [2] | Ki [3]
